Source: patent publication US20220226508A1, “METHODS AND COMPOSITIONS FOR TREATING EPILEPSY” (THE REGENTS OF THE UNIVERSITY OF CALIFORNIA, priority 2019, published 2022)
“Also recorded” adds a separate entry of the source. Where two headings read alike, the source gives them in different places.

Assays:
[1] = test system: scn1lab mutant zebrafish; experiment: Toxicity in larvae after 90 min drug exposure (heartbeat, escape response); assay type: in vivo, zebrafish (Danio rerio)
Procedure: (§1) Seizure monitoring. At 5 dpf individual zebrafish larvae were placed into a single well of a clear flat-bottomed 96-well microplate containing embryo media. Larvae were selected randomly as sex determination is not possible at this stage of development. All drug screening experiments were conducted in an unbiased manner by investigators blinded to the test compounds and all files coded for post hoc analysis. Microplates were placed inside the DanioVision and acclimated for 20 min at room temperature. Locomotion plots were obtained for each well at a recording epoch of 10 min using EthoVision XT software (DanioVision, Noldus Information Technology). Seizure scoring was performed using the following three-stage scale established for pentylenetetrazole-induced seizures: Stage 0, no or very little swim activity; Stage I, increased, brief bouts of swim activity; Stage II, rapid “whirlpool-like” circling swim behavior; and Stage III, paroxysmal whole-body clonus-like convulsions, and a brief loss of posture. WT fish are typically scored at Stage 0 or I. Plots were analyzed for distance travelled (in millimeters) and mean velocity (in millimeters per second). After 90 mins of drug exposure larvae were examined for toxic side-effects. Compounds that decreased or stopped the larva heartbeat, or reduced or eliminated the escape response when touched, were considered toxic.

[2] = molecular target: T1, human 5-HT2CR (Homo sapiens, UniProt P28335); experiment: Radioligand binding assay (NIMH PDSP), 5-HT2CR
T1 construct: expressed in transfected cells
T1 sequence (P28335 33-458): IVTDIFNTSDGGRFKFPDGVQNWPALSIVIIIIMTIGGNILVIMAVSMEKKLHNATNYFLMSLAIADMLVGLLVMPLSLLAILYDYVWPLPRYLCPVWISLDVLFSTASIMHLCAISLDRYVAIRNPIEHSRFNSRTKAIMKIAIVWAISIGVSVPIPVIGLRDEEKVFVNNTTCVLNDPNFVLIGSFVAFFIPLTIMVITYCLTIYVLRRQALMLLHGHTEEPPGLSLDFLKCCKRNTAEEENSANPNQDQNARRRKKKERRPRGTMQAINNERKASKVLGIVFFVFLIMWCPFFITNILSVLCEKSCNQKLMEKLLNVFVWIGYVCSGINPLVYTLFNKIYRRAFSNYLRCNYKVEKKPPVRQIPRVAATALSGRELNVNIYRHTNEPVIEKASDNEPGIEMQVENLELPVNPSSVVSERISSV
Procedure: (§2) Receptor Binding Assays. In vitro binding assay and Ki data were performed by the US National Institute of Mental Health Psychoactive Drug Screening Program (NIMH PDSP). Drugs were screened against recombinant, stably expressed human 5-HT2AR, 5-HT2BR, 5-HT2CR and H1. For specific binding assays please refer to detailed procedures at https://pdspdb.unc.edu/pdspWeb/ (Besnard, J. et al., Nature, 492, 215-220, 2012).

[3] = molecular target: human H1 receptor (Homo sapiens, UniProt P35367); experiment: Radioligand binding assay (NIMH PDSP), H1; set-up: expressed in transfected cells
Procedure: as §2

[4] = test system: human 5-HT2R; experiment: Radioligand binding assays (NIMH PDSP), 5-HT2R subtypes together; conditions: 5-HT2AR, 5-HT2BR, 5-HT2CR
Procedure: Receptor Binding Assays. In vitro binding assay and Ki data were performed by the US National Institute of Mental Health Psychoactive Drug Screening Program (NIMH PDSP). Drugs were screened against recombinant, stably expressed human 5-HT2AR, 5-HT2BR, 5-HT2CR and H1.

[5] = molecular target: T2, human 5-HT2BR (Homo sapiens, UniProt P41595); experiment: biochemical; assay type: binding; conditions: for specificity / selectivity for 5-HT2BR over other 5-HT2R subtypes: radioligand binding
T2 construct: expressed in transfected cells
Procedure: as §2

[6] = molecular target: T3, human 5-HT2AR (Homo sapiens, UniProt P28223); experiment: biochemical; assay type: binding
T3 construct: expressed in transfected cells
Procedure: as §2

[7] = test system: scn1lab mutant zebrafish; experiment: Local field potential (LFP) electrophysiology of electrographic seizure events; assay type: in vivo, zebrafish (Danio rerio); conditions: 10 min LFP recording, 5 dpf larvae
Procedure: For electrophysiology studies, zebrafish larvae were anesthetized with cold and immobilized in 1.2% agarose; local field potential (LFP) recordings were obtained from forebrain or optic tectum structures using a single-electrode approach, as previously described (Baraban, S. C. et al., Neuroscience, 131, 759-768, 2005). Agarose-embedded LFP recording sessions of 10 min were obtained at 1 kHz. Epileptiform events were identified post hoc and defined as multi-spike or poly-spike upward or downward membrane deflections greater than 3× baseline noise level and 150-250 ms in duration (interictal-like) or greater than 5× baseline noise, multi-spike and >500 ms in duration (ictal-like); both events were counted using threshold detection settings in Clampfit (Molecular Devices; Sunnyvale, Calif.). During electrophysiology experiments larvae were continuously monitored for blood flow and heart rate using an Axiocam digital camera at video frame rate.
Monitoring electrographic brain activity to confirm seizure suppression is an essential assay to eliminate false positives from behavioral testing (Griffin, A. et al., Frontiers in Pharmacology, 9, 2018). By placing a microelectrode into a visually identified brain region of an agar-immobilized zebrafish larval, stable local field potential (LFP) recordings can be monitored for several hours (Baraban, S. C. et al., Nat Commun, 4, 2410, 2013). At 5 dpf LFP recordings of scn1Lab zebrafish larvae show an average of 250 abnormal electrographic seizure events during a 10 min recording epoch.

[8] = test system: scn1lab mutant zebrafish; experiment: Locomotion assay of high-velocity seizure-like swim behavior; assay type: in vivo, zebrafish (Danio rerio); conditions: for suppression of seizure-like swim behavior (change in mean velocity): independently resynthesized compounds retested at 10, 50, 100 and 250 μM; for suppression of seizure-like swim behavior (change in mean swim velocity): initial library screen at 100 μM and 250 μM, 5 dpf larvae, threshold reduction ≥40%
Text: Zebrafish maintenance. Zebrafish were raised under standard laboratory conditions in accordance with requirements outlined in the Guide for the Care and Use of Animals (ebrary Inc., 2011) and experiments were approved by the Institutional Animal Care and Use Committee (protocol #AN108659-03). Embryos were obtained by natural spawning of scn1lab (didy^s552) heterozygous animals that had been outcrossed to TL strain. Homozygous scn1lab mutants (n=2500) have dispersed melanosomes and appear visibly darker by 3 dpf compared to WT larvae.
as §1
Statistics. Data are presented as the mean±standard error of the mean (SEM), unless otherwise stated. For behavior analysis, the threshold for a change in mean swim velocity ≥40% (>1.5×SD of 250 control treated scn1lab) is considered significant. For comparison between more than two groups one-way ANOVA analysis was used. […] Differences considered statistically significant are indicated with asterisks (*P<0.05; **P<0.01).

[9] = molecular target: T1, human 5-HT2CR; conditions: known drugs and commercial compounds; read-out: binding affinity (Ki) 5-HT2C / 5-HT2CR; cited from earlier work
[10] = molecular target: T2, human 5-HT2BR; conditions: known drugs and commercial compounds; read-out: binding affinity (Ki) 5-HT2B / 5-HT2BR; cited from earlier work
[11] = molecular target: T3, human 5-HT2AR; conditions: known drugs and commercial compounds; read-out: binding affinity (Ki) 5-HT2A / 5-HT2AR; cited from earlier work
[12] = Solubility in the screening medium; assay type: physicochemical; conditions: 250 μM
Procedure: 10 mM compound stock solutions were made in DMSO and then diluted in embryo medium for assays.

[13] = read-out: binding affinity (Ki) 5-HT2CR
[14] = read-out: binding affinity (Ki) H1
[15] = read-out: binding affinity (Ki) 5-HT2BR
[16] = read-out: binding affinity (Ki) 5-HT2AR
[17] = clemizole analogs, recombinant human receptor, read-out: binding affinity (Ki) H1
[18] = 30 and 90 min exposure, threshold ≥40%
[19] = clemizole analogs, recombinant human receptor, read-out: binding affinity (Ki) 5-HT2BR
[20] = clemizole analogs, recombinant human receptor, read-out: binding affinity (Ki) 5-HT2CR

T3 sequence (P28223 whole entry): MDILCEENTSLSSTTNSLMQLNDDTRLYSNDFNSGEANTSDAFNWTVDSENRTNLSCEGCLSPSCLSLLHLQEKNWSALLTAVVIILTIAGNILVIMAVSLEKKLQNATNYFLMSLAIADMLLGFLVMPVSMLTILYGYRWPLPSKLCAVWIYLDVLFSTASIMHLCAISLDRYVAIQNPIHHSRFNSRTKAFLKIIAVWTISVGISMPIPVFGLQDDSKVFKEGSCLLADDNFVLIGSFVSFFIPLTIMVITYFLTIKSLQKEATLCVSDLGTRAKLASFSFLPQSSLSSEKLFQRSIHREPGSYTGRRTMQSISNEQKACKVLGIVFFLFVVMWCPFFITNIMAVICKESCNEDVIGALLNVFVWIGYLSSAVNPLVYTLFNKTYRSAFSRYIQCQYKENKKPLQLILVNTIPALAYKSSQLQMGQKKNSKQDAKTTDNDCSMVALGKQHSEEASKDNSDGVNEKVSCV
T2 sequence (P41595 whole entry): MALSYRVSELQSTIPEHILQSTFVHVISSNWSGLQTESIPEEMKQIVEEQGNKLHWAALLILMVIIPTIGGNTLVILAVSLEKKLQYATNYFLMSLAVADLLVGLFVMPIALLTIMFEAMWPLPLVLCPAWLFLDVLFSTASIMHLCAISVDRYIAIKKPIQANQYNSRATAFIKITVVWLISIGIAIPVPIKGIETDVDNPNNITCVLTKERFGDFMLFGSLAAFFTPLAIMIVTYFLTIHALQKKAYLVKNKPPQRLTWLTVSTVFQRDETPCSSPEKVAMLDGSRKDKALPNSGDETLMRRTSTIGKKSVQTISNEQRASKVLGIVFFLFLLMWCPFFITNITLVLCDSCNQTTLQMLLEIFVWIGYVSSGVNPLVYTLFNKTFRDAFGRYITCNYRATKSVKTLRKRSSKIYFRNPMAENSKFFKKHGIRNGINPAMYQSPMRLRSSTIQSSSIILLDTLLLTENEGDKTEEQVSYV
Chain of human H1 receptor (P35367 whole entry): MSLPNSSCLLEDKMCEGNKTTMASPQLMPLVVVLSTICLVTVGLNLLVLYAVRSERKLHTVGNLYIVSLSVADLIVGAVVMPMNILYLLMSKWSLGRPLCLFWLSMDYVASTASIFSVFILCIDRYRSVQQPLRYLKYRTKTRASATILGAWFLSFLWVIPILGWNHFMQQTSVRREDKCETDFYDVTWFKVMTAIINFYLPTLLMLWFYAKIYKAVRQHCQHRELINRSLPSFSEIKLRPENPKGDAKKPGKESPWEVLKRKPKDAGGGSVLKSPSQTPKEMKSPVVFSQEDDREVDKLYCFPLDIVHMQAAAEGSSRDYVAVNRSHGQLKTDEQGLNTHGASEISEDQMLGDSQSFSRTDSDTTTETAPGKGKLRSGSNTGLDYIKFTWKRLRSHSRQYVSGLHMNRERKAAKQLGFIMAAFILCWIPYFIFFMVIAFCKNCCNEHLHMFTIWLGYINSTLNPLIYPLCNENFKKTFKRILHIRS

CC(C)C[C@H]1C(=O)N2CCC[C@H]2[C@]2(O)O[C@](NC(=O)[C@@H]3C=C4c5cccc6[nH]c(Br)c(c56)C[C@H]4N(C)C3)(C(C)C)C(=O)N12 [bromocriptine]
toxicity after 90-min exposure ([1]; concentrations higher than 10 μM): toxicity

c1cn(CC2CCCCC2)c(CN2CCCC2)n1 [Compound 21]
Ki [2, 13]: > 10000 nM
Ki [3, 14]: > 10000 nM
binding to any human 5-HT2R [4]: no significant binding
Ki [5, 15]: > 10000 nM
Ki [6, 16]: > 10000 nM

FC1(F)CCC(Cn2c(CN3CCCC3)nc3ccccc32)CC1 [Compound 17]
Ki [2, 13]: > 10000 nM
Ki [3, 14]: 137 nM
binding to any human 5-HT2R [4]: no significant binding
Ki [5, 15]: > 10000 nM
Ki [6, 16]: > 10000 nM

FC(F)(F)c1ccc(Cn2c(CN3CCCC3)nc3ccccc32)cc1 [Compound 6, 2-[(Pyrrolidin-1-yl)methyl]-1-{[4-(trifluoromethyl)phenyl]methyl}-1H-benzimidazole]
Ki [2, 13]: > 10000 nM
Ki [3, 17]: 16 nM
frequency of electrographic seizure (epileptiform) events ([7]; 100 μM): significant changes in the frequency of events; also recorded: significant suppression of electrographic seizure activity
suppression of seizure-like swim behavior (change in mean velocity) [8, 18]: reduced the high-velocity seizure-like swim behavior
suppression of seizure-like swim behavior (change in mean swim velocity) [8]: effective in suppressing
Ki ([5]; clemizole analogs, recombinant human receptor, listed as Comp. 6, read-out: binding affinity (Ki) 5-HT2BR): 258 nM
Ki [5, 19]: 285 nM
specificity / selectivity for 5-HT2BR over other 5-HT2R subtypes [5]: specificity for 5-HT2BR over other 5-HT2R subtypes; also recorded: significant preference for 5-HT2BR
Ki [6, 16]: > 10000 nM

c1ccc2c(c1)nc(CN1CCCC1)n2CC1CCOCC1 [Compound 15]
Ki [2]: > 10000 nM
Ki [3]: 865 nM
binding to any human 5-HT2R [4]: no significant binding
Ki [5]: > 10000 nM
Ki [6]: > 10000 nM

c1ccc2c(c1)nc(CN1CCCC1)n2CC1CCCC1 [Compound 20, 1-(Cyclopentylmethyl)-2-[(pyrrolidin-1-yl)methyl]-1H-benzimidazole]
Ki [2, 13]: > 10000 nM
Ki [3, 17]: 161 nM
frequency of electrographic seizure (epileptiform) events ([7]; 100 μM): significant changes in the frequency of events; also recorded: significant suppression of electrographic seizure activity
suppression of seizure-like swim behavior (change in mean velocity) [8, 18]: reduced the high-velocity seizure-like swim behavior
suppression of seizure-like swim behavior (change in mean swim velocity) [8]: effective in suppressing
Ki [5, 19]: 772 nM
specificity / selectivity for 5-HT2BR over other 5-HT2R subtypes [5]: specificity for 5-HT2BR over other 5-HT2R subtypes; also recorded: significant preference for 5-HT2BR
Ki [6, 16]: > 10000 nM

N#Cc1cccc(Cn2c(CN3CCCC3)nc3ccccc32)c1 [Compound 10]
Ki [2, 13]: > 10000 nM
Ki [3, 14]: 351 nM
binding to any human 5-HT2R [4]: no significant binding
Ki [5, 15]: > 10000 nM
Ki [6, 16]: > 10000 nM

CC[C@@H](CO)NC(=O)[C@@H]1C=C2c3cccc4[nH]cc(c34)C[C@H]2N(C)C1 [methylergonovine, reference compound]
Ki [9]: 4.6 nM
Ki [10]: 2.2 nM
frequency of electrographic seizure (epileptiform) events ([7]; 250 μM): significant changes in the frequency of events; also recorded: significantly suppressed the frequency of electrographic seizure events
effect on seizure-like swim behavior (change in mean velocity) ([8]; commercial 5-HT2BR/dopamine agonists, three concentrations, 30 and 90 min exposure, threshold ≥40%): suppressed convulsive swim behaviors in a concentration-dependent manner

c1cnc(N2CCN(Cc3ccc4c(c3)OCO4)CC2)nc1 [piribedil]
Ki [9]: > 10000 nM
toxicity after 90-min exposure ([1]; 100 μM): toxicity
toxicity after 90-min exposure ([1]; 250 μM): toxicity
Ki [11]: > 10000 nM

Clc1ccc(Cn2ccnc2CN2CCCC2)cc1 [Compound 9, 1-[(4-Chlorophenyl)methyl]-2-[(pyrrolidin-1-yl)methyl]-1H-imidazole]
Ki [2, 20]: 447 nM
Ki [3, 17]: 29 nM
toxicity after 90-min exposure ([1]; 250 μM): toxic
suppression of seizure-like swim behavior (change in mean swim velocity) [8]: effective in suppressing

Clc1ccc(Cn2c(CN3CCOCC3)nc3ccccc32)cc1 [Compound 23]
Ki [2, 13]: > 10000 nM
Ki [3, 14]: 34 nM
toxicity after 90-min exposure ([1]; initial library screen, concentration not given): toxic
specificity / selectivity for 5-HT2BR over other 5-HT2R subtypes [5]: selectivity for 5-HT2BR
Ki [5, 15]: 515 nM
Ki [6, 16]: > 10000 nM

CC(C)(C)OC(=O)N1CCN(Cc2nc3ccccc3n2Cc2ccc(Cl)cc2)CC1 [Compound 25, tert-Butyl 4-({1-[(4-chlorophenyl)methyl]-1H-benzimidazol-2-yl}methyl)piperazine-1-carboxylate]
Ki [2, 20]: 2260 nM
Ki [3, 17]: 76 nM
going into solution [12]: failed to go into solution
Ki [5, 19]: 482 nM
Ki ([6]; clemizole analogs, recombinant human receptor, read-out: binding affinity (Ki) 5-HT2AR): 2380 nM
